Test system: SARS-COV-2 pseudoviral particle (pCoV-VP)
Format: cell-based

CCN(CCO)CCCC(C)Nc1ccnc2cc(Cl)ccc12 (stereo not drawn) [hydroxychloroquine]
decrease of cytopathic effects of pCoV-VPs (MTS assay): ~11.3%

CCN(CC)Cc1cc(Nc2ccnc3cc(Cl)ccc23)ccc1O [amodiaquine]
decrease of cytopathic effects of pCoV-VPs (MTS assay): approximately 21.4%

CCC(CC)COC(=O)[C@H](C)N[P@](=O)(OC[C@H]1O[C@@](C#N)(c2ccc3c(N)ncnn23)[C@H](O)[C@@H]1O)Oc1ccccc1 [remdesivir]
decrease of cytopathic effects of pCoV-VPs (MTS assay): ~30.0%

— patent US20240228925A1, “APPARATUS AND METHOD FOR A […] ALVEOLAR LUNG-ON-A-CHIP MODEL” (priority 2021, published 2024)
